# Where a name gives a salt, the structure may show the parent alone.
# What was measured:
# [1] = test system: Eubacterium lentum GAI 5242; assay: In vitro antibacterial activity, MIC (standard strain); type: cell-based; conditions: Eggerthella lenta, GAI5242, Eubacterium lentum GAI 5242, 10^6 cells/ml
# [2] = test system: Fusobacterium necrophorum S-45; assay: as above; type: cell-based; conditions: S45, Fusobacterium necrophorum S-45, 10^6 cells/ml
smiles,measurement,setting,value
"CC1CN(c2c(F)cc3c(=O)c(C(=O)O)cn(C4CC4)c3c2Cl)CCN1 (stereo not drawn) [Example 5, 8-Chloro-l-cyclopropyl-6-fluoro-1,4-dihydro-7-(3-methyl-1-piperazinyl)-4-oxoquinoline-3-carboxylic acid hydrochloride]",MIC,[1],0.39 µg/mL
same,MIC,[2],0.39 µg/mL

# From patent EP0178388A1, “Quinolinecarboxylic acid derivatives” (KYORIN PHARMACEUTICAL CO., LTD., priority 1984, dated 1986)
